Measured values published in patent publication US20020137929A1, “1 - (3-heterocyclylphenyl) isothiourea, -isourea, -guanidine and -amidine herbicidal agents” (Intellectual Property Department, BASF Aktiengesellschaft, priority 1998, published 2002).

Assays:
[1] = system: CHEAL (Lambsquarters, Common); assay: Postemergence herbicidal evaluation; type: in vivo, Chenopodium album; conditions: for Herbicidal rating CHEAL: postemergence
Outline: (§1)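 Scores (0–9) reflect plant stand, vigor, malformation, size, chlorosis and general appearance relative to control, read 4 to 5 weeks after treatment and averaged where tests were repeated. Application: about 0.0156–0.500 kg/ha sprayed at 40 psi onto two-week seedlings.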

CASOB (Sicklepod) [2] = assay: Preemergence herbicidal evaluation; type: in vivo, Cassia obtusifolia; conditions: rated 4-5 weeks after treatment
Outline: (§2)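 Sown cups got a single aqueous acetone spray of test compound (roughly 0.0156–0.500 kg/ha) before seedlings emerged. Evaluation, 4–5 weeks on, used a 0–9 visual scale covering plant stand, vigor, size, malformation, chlorosis and general appearance compared with controls.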

CASOB (Sicklepod) [3] = assay: Postemergence herbicidal evaluation; type: in vivo, Cassia obtusifolia; conditions: for Herbicidal rating CASOB: postemergence
Outline: as §1

ORYSAT (Rice, Tebonnet) = assay: Postemergence herbicidal evaluation; type: in vivo, Oryza sativa, (L.) Tebonnet; conditions: for Herbicidal rating ORYSAT: postemergence
Outline: as §1

CYPIR (Rice Flatsedge) = assay: Preemergence weed control under flooded paddy conditions; type: in vivo, Cyperus iria; conditions: rated 3-4 weeks after treatment
Outline: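 First, seeds or propagules go into the top 0.5 cm of silt loam; next, water is held 1.5 to 3 cm over the soil; then compound (50/50 acetone/water) is pipetted into it at about 0.0313 to 0.500 kg/ha; finally plants are rated visually 0-9 after three to four weeks.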

ECHCG (Barnyardgrass) = assay: Postemergence herbicidal evaluation; type: in vivo, Echinochloa crus-galli; conditions: for Herbicidal rating ECHCG: postemergence
Outline: as §1

SETVI (Foxtail, Green) = assay: Postemergence herbicidal evaluation; type: in vivo, Setaria viridis; conditions: for Herbicidal rating SETVI: postemergence
Outline: as §1

GALAP (Galium) [4] = assay: Preemergence herbicidal evaluation; type: in vivo, Galium aparine; conditions: rated 4-5 weeks after treatment
Outline: as §2

CYPSE (Flatsedge) = assay: Preemergence weed control under flooded paddy conditions; type: in vivo, Cyperus serotinus; conditions: rated 3-4 weeks after treatment
Outline: (§3)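 Seeds or propagules sown in top 0.5 cm of silt loam soil, flooded 1.5 to 3 cm above surface throughout. Compound in 50/50 v/v aqueous/acetone pipetted into flood water at about 0.0313 to 0.500 kg/ha. Visual 0-9 rating versus control after three to four weeks in greenhouse.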

AMBEL (Ragweed, Common) = assay: Postemergence herbicidal evaluation; type: in vivo, Ambrosia artemisifolia; conditions: for Herbicidal rating AMBEL: postemergence
Outline: as §1

GALAP (Galium) [5] = assay: Postemergence herbicidal evaluation; type: in vivo, Galium aparine; conditions: for Herbicidal rating GALAP: postemergence
Outline: as §1

[6] = system: GLXMAW (Soybean, Williams); assay: Postemergence herbicidal evaluation; type: in vivo, Glycine max, (L.) Merr. cv Williams; conditions: for Herbicidal rating GLXMAW: postemergence
Outline: as §1

ZEAMX (Corn, Field) = assay: Preemergence herbicidal evaluation; type: in vivo, Zea mays; conditions: rated 4-5 weeks after treatment
Outline: as §2

[7] = system: SAGPY (Arrowhead (Pygmaea)); assay: Preemergence weed control under flooded paddy conditions; type: in vivo, Sagittaria pygmaea; conditions: rated 3-4 weeks after treatment
Outline: as §3

Cn1c(C(F)(F)F)cc(=O)n(-c2cc(N=C3SCC(=O)N3C3CCC3)c(Cl)cc2F)c1=O [Compound 168, 3-{4-Chloro-5-[(3-cyclobutyl-4-oxo-2-thiazolidinylidene)amino]-2-fluorophenyl}-1-methyl-6-(trifluoromethyl)-2,4(1H,3H)-pyrimidinedione]
Herbicidal rating CHEAL ([1]; rate 0.0156 kg/ha): 2.0 | Herbicidal rating CHEAL ([1]; rate 0.0313 kg/ha): 3.0 | Herbicidal rating CHEAL ([1]; rate 0.0625 kg/ha): 4.0 | Preemergence herbicidal rating CASOB (CASOB (Sicklepod) [2]; 0.0156 kg/ha): 0.0 | Preemergence herbicidal rating CASOB (CASOB (Sicklepod) [2]; 0.0313 kg/ha): 0.0 | Preemergence herbicidal rating CASOB (CASOB (Sicklepod) [2]; 0.0625 kg/ha): 0.0 | Preemergence herbicidal rating CASOB (CASOB (Sicklepod) [2]; 0.1250 kg/ha): 0.0 | Preemergence herbicidal rating CASOB (CASOB (Sicklepod) [2]; 0.2500 kg/ha): 0.0 | Herbicidal rating CASOB (CASOB (Sicklepod) [3]; rate 0.0156 kg/ha): 0.0 | Herbicidal rating CASOB (CASOB (Sicklepod) [3]; rate 0.0313 kg/ha): 0.0 | Herbicidal rating CASOB (CASOB (Sicklepod) [3]; rate 0.0625 kg/ha): 2.0 | Herbicidal rating ORYSAT (ORYSAT (Rice, Tebonnet); rate 0.0156 kg/ha): 1.0 | Herbicidal rating ORYSAT (ORYSAT (Rice, Tebonnet); rate 0.0313 kg/ha): 1.5 | Herbicidal rating ORYSAT (ORYSAT (Rice, Tebonnet); rate 0.0625 kg/ha): 2.5 | herbicidal effect rating, CYPIR (CYPIR (Rice Flatsedge); 0.0313 kg/ha): 0.0 | herbicidal effect rating, CYPIR (CYPIR (Rice Flatsedge); 0.0625 kg/ha): 0.0 | herbicidal effect rating, CYPIR (CYPIR (Rice Flatsedge); 0.1250 kg/ha): 0.0 | herbicidal effect rating, CYPIR (CYPIR (Rice Flatsedge); 0.2500 kg/ha): 0.0 | Herbicidal rating ECHCG (ECHCG (Barnyardgrass); rate 0.0156 kg/ha): 0.0 | Herbicidal rating ECHCG (ECHCG (Barnyardgrass); rate 0.0313 kg/ha): 0.0 | Herbicidal rating ECHCG (ECHCG (Barnyardgrass); rate 0.0625 kg/ha): 4.0 | Herbicidal rating SETVI (SETVI (Foxtail, Green); rate 0.0156 kg/ha): 0.0 | Herbicidal rating SETVI (SETVI (Foxtail, Green); rate 0.0313 kg/ha): 0.0 | Herbicidal rating SETVI (SETVI (Foxtail, Green); rate 0.0625 kg/ha): 3.0 | Preemergence herbicidal rating GALAP (GALAP (Galium) [4]; 0.0156 kg/ha): 0.0 | Preemergence herbicidal rating GALAP (GALAP (Galium) [4]; 0.0313 kg/ha): 0.0 | Preemergence herbicidal rating GALAP (GALAP (Galium) [4]; 0.0625 kg/ha): 0.0 | Preemergence herbicidal rating GALAP (GALAP (Galium) [4]; 0.1250 kg/ha): 0.0 | Preemergence herbicidal rating GALAP (GALAP (Galium) [4]; 0.2500 kg/ha): 3.0 | herbicidal effect rating, CYPSE (CYPSE (Flatsedge); 0.0313 kg/ha): 0.0 | herbicidal effect rating, CYPSE (CYPSE (Flatsedge); 0.0625 kg/ha): 0.0 | herbicidal effect rating, CYPSE (CYPSE (Flatsedge); 0.1250 kg/ha): 0.0 | Herbicidal rating AMBEL (AMBEL (Ragweed, Common); rate 0.0156 kg/ha): 3.0 | Herbicidal rating AMBEL (AMBEL (Ragweed, Common); rate 0.0313 kg/ha): 9.0 | Herbicidal rating AMBEL (AMBEL (Ragweed, Common); rate 0.0625 kg/ha): 9.0 | Herbicidal rating GALAP (GALAP (Galium) [5]; rate 0.0156 kg/ha): 0.0 | Herbicidal rating GALAP (GALAP (Galium) [5]; rate 0.0313 kg/ha): 1.0 | Herbicidal rating GALAP (GALAP (Galium) [5]; rate 0.0625 kg/ha): 3.0 | Herbicidal rating GLXMAW ([6]; rate 0.0156 kg/ha): 5.5 | Herbicidal rating GLXMAW ([6]; rate 0.0313 kg/ha): 6.5 | Herbicidal rating GLXMAW ([6]; rate 0.0625 kg/ha): 7.0 | Preemergence herbicidal rating ZEAMX (ZEAMX (Corn, Field); 0.0156 kg/ha): 0.0 | Preemergence herbicidal rating ZEAMX (ZEAMX (Corn, Field); 0.0313 kg/ha): 0.0 | Preemergence herbicidal rating ZEAMX (ZEAMX (Corn, Field); 0.0625 kg/ha): 0.0 | Preemergence herbicidal rating ZEAMX (ZEAMX (Corn, Field); 0.1250 kg/ha): 0.0 | Preemergence herbicidal rating ZEAMX (ZEAMX (Corn, Field); 0.2500 kg/ha): 0.0 | herbicidal effect rating, SAGPY ([7]; 0.0313 kg/ha): 0.0 | herbicidal effect rating, SAGPY ([7]; 0.0625 kg/ha): 0.0 | herbicidal effect rating, SAGPY ([7]; 0.1250 kg/ha): 0.0 | herbicidal effect rating, SAGPY ([7]; 0.2500 kg/ha): 2.0

COCCCN1C(=O)CSC1=Nc1cc(-n2c(=O)cc(C(F)(F)F)n(C)c2=O)c(F)cc1Cl [Compound 172, 3-{4-Chloro-2-fluoro-5-{[3-(3-methoxypropyl)-4-oxo-2-thiazolidinylidene]amino}phenyl}-1-methyl-6-(trifluoromethyl)-2,4(1H, 3H)-pyrimidinedione]
Postemergence herbicidal rating CHEAL ([1]; Rate 0.0313 kg/ha): 9.0 | Postemergence herbicidal rating CHEAL ([1]; Rate 0.0625 kg/ha): 9.0 | Postemergence herbicidal rating CHEAL ([1]; rate 0.0156 kg/ha): 6.0 | Preemergence herbicidal rating CASOB (CASOB (Sicklepod) [2]; 0.0156 kg/ha): 1.0 | Preemergence herbicidal rating CASOB (CASOB (Sicklepod) [2]; 0.0313 kg/ha): 3.0 | Preemergence herbicidal rating CASOB (CASOB (Sicklepod) [2]; 0.0625 kg/ha): 7.0 | Preemergence herbicidal rating CASOB (CASOB (Sicklepod) [2]; 0.1250 kg/ha): 9.0 | Preemergence herbicidal rating CASOB (CASOB (Sicklepod) [2]; 0.2500 kg/ha): 9.0 | Postemergence herbicidal rating CASOB (CASOB (Sicklepod) [3]; Rate 0.0313 kg/ha): 2.0 | Postemergence herbicidal rating CASOB (CASOB (Sicklepod) [3]; Rate 0.0625 kg/ha): 2.0 | Postemergence herbicidal rating CASOB (CASOB (Sicklepod) [3]; rate 0.0156 kg/ha): 1.0 | Postemergence herbicidal rating ORYSAT (ORYSAT (Rice, Tebonnet); Rate 0.0313 kg/ha): 3.5 | Postemergence herbicidal rating ORYSAT (ORYSAT (Rice, Tebonnet); Rate 0.0625 kg/ha): 4.0 | Postemergence herbicidal rating ORYSAT (ORYSAT (Rice, Tebonnet); rate 0.0156 kg/ha): 3.5 | herbicidal effect rating, CYPIR (CYPIR (Rice Flatsedge); 0.0313 kg/ha): 5.0 | herbicidal effect rating, CYPIR (CYPIR (Rice Flatsedge); 0.0625 kg/ha): 7.0 | herbicidal effect rating, CYPIR (CYPIR (Rice Flatsedge); 0.1250 kg/ha): 8.0 | herbicidal effect rating, CYPIR (CYPIR (Rice Flatsedge); 0.2500 kg/ha): 9.0 | Postemergence herbicidal rating ECHCG (ECHCG (Barnyardgrass); Rate 0.0313 kg/ha): 3.0 | Postemergence herbicidal rating ECHCG (ECHCG (Barnyardgrass); Rate 0.0625 kg/ha): 3.0 | Postemergence herbicidal rating ECHCG (ECHCG (Barnyardgrass); rate 0.0156 kg/ha): 2.0 | Postemergence herbicidal rating SETVI (SETVI (Foxtail, Green); Rate 0.0313 kg/ha): 3.0 | Postemergence herbicidal rating SETVI (SETVI (Foxtail, Green); Rate 0.0625 kg/ha): 2.0 | Postemergence herbicidal rating SETVI (SETVI (Foxtail, Green); rate 0.0156 kg/ha): 2.0 | Preemergence herbicidal rating GALAP (GALAP (Galium) [4]; 0.0156 kg/ha): 0.0 | Preemergence herbicidal rating GALAP (GALAP (Galium) [4]; 0.0313 kg/ha): 0.0 | Preemergence herbicidal rating GALAP (GALAP (Galium) [4]; 0.0625 kg/ha): 5.0 | Preemergence herbicidal rating GALAP (GALAP (Galium) [4]; 0.1250 kg/ha): 7.0 | Preemergence herbicidal rating GALAP (GALAP (Galium) [4]; 0.2500 kg/ha): 9.0 | herbicidal effect rating, CYPSE (CYPSE (Flatsedge); 0.0625 kg/ha): 6.0 | herbicidal effect rating, CYPSE (CYPSE (Flatsedge); 0.1250 kg/ha): 9.0 | herbicidal effect rating, CYPSE (CYPSE (Flatsedge); 0.2500 kg/ha): 9.0 | Postemergence herbicidal rating AMBEL (AMBEL (Ragweed, Common); Rate 0.0313 kg/ha): 9.0 | Postemergence herbicidal rating AMBEL (AMBEL (Ragweed, Common); Rate 0.0625 kg/ha): 9.0 | Postemergence herbicidal rating AMBEL (AMBEL (Ragweed, Common); rate 0.0156 kg/ha): 6.0 | Postemergence herbicidal rating GALAP (GALAP (Galium) [5]; Rate 0.0313 kg/ha): 4.0 | Postemergence herbicidal rating GALAP (GALAP (Galium) [5]; Rate 0.0625 kg/ha): 7.0 | Postemergence herbicidal rating GALAP (GALAP (Galium) [5]; rate 0.0156 kg/ha): 3.0 | Postemergence herbicidal rating GLXMAW ([6]; Rate 0.0313 kg/ha): 6.5 | Postemergence herbicidal rating GLXMAW ([6]; Rate 0.0625 kg/ha): 7.0 | Postemergence herbicidal rating GLXMAW ([6]; rate 0.0156 kg/ha): 6.0 | Preemergence herbicidal rating ZEAMX (ZEAMX (Corn, Field); 0.0156 kg/ha): 4.0 | Preemergence herbicidal rating ZEAMX (ZEAMX (Corn, Field); 0.0313 kg/ha): 7.0 | Preemergence herbicidal rating ZEAMX (ZEAMX (Corn, Field); 0.0625 kg/ha): 8.0 | Preemergence herbicidal rating ZEAMX (ZEAMX (Corn, Field); 0.1250 kg/ha): 9.0 | Preemergence herbicidal rating ZEAMX (ZEAMX (Corn, Field); 0.2500 kg/ha): 9.0 | herbicidal effect rating, SAGPY ([7]; 0.0313 kg/ha): 6.0 | herbicidal effect rating, SAGPY ([7]; 0.0625 kg/ha): 6.0 | herbicidal effect rating, SAGPY ([7]; 0.1250 kg/ha): 9.0 | herbicidal effect rating, SAGPY ([7]; 0.2500 kg/ha): 9.0
